Measurements from patent US20030065039A1, “Biologically active 1,3-bis-aromatic-prop-2-en-1-ones, 1,3-bis-aromatic-propan-1-ones, and 1,3-bis-aromatic-prop-2-yn-1-ones” (Statens Serum Institute, priority 1997, published 2003).
In brackets after ≈: the same amount, converted by molar mass.

Legend:
Leishmania promastigotes = Leishmania promastigotes Assay; type: cell-based; settings: Leishmania; promastigotes, 3H-thymidine uptake; read-out: Leishmania IC50 ± SD
Procedure: A WHO reference vaccine strain of L. major originally isolated from a patient in Iran and a Kenyan strain of L. donovani (MHOM(/KE/85/NLB 274) were cultured in medium 199 containing 0.02 mg/ml gentamycin, 25 mM Hepes, 4 mM L-glutamine, and 20% heat inactivated fetal calf serum (FCS). Incubation was carried out at 26° C. Promastigotes were harvested on day 3 and 6 of the culture and used for the parasite growth inhibition.
The effect of the test compounds on promastigotes was assessed by a method similar to the one described by Pearson et al., by incubating promastigotes (3×10^6/ml) at 26° C. for 2 hrs in the presence of a given compound or the medium alone in 96 wells flat bottom microtiter plates. Following incubation, 100 μCi of 3H-thymidine was added to each well and further incubated for 18 hrs. Promastigotes were then harvested on filter paper by means of a cell harvester, extensively washed with distilled water and counted in a scintillation counter. The promastigotes were also counted microscopically and their flagellar motility was assessed.

human lymphocytes = test: Lymphocyte Proliferation Assay; type: cell-based; settings: Lymphocyte; PHA provoked proliferation of human lymphocytes; read-out: Lymphocytes IC50 ± SD
Procedure: Human blood mononuclear cells (BMNC) from heparinized blood were isolated by metrizoate sodium-Ficoll density gradient centrifugation, washed 3 times in RPMI 1640 medium supplemented with 5% FCS and with 400 IU of penicillin plus 400 μg/ml streptomycin. BMNC were resuspended in the medium and cultured in triplicate, 0.63×10^5/ml and 160 μl per vial, in round-bottom microtiter plates with 20 μl of various concentrations of the test compound. Immediately prior to incubation, optimum concentrations of the mitogen phytohaemagglutinin (PHA) and the antigen purified protein derivative of tuberculin (PPD) were added to the cultures in a volume of 20 μl. Unstimulated control cultures were always included. Cultures were incubated for 3 or 7 days. The degree of lymphocyte proliferation was estimated by ^3H-thymidine (1 μCi per well) addition 24 h before the cells were harvested on glass fiber filters by means of a harvesting machine), and ^3H-thymidine incorporation was measured in a liquid scintillation counter. For each set of triplicate values, the median was recorded. Unstimulated cultures were always included as controls.

Plasmodium falciparum = Plasmodium falciparum Assay; type: cell-based; settings: Plasmodium falciparum; 3-H-hypoxanthine incorporation, 48 hours; read-out: Plasmodium IC50 ± SD
Procedure: The experiments in which compounds were tested for their ability to inhibit parasite growth were performed by a modification of the method originally described by Jensen et al. (1982). 50 μl of parasitized erythrocytes (parasitemia approximately 1%) in a concentration of 5×10^8/ml and 50 μl of RPMI medium containing different concentrations of the test compound was added to each well of a 96 well flat-bottomed microtiter plate. The cultures were then incubated for 48 hours, 24 hours before termination of the culture adding 20 μl of 3-H-hypoxanthine (40 uCi/ml) was added to each well. The cultures were then harvested onto glass fiber filters using a Skatron cell harvester, and the incorporation of 3-H-hypoxanthine into the DNA of dividing parasites was determined by liquid scintillation spectrometry. Control cultures with uninfected erythrocytes and infected erythrocytes in RPMI medium without test compounds were always performed in parallel to the test cultures. In some experiments thin smears of parasite cultures were stained by Giemsa and examined under microscope (×1000). The test compounds described above, were diluted in RPMI medium immediately before use. In the experiments, chloroquine phosphate was used as a positive control as a drug known to inhibit parasite growth.

Helicobacter pylori = test: Helicobacter species Assay (agar plate, MIC); type: cell-based
Procedure: (§1) 20 strains of Helicobacter pylori were used in an agar plate assay. The compounds were incorporated in the agar plates at different concentrations as described in the examples and were then inoculated with different strains of Helicobacter pylori followed by incubation in a microaerophilic atmosphere at 37° C. for 72 hours. The number of colony-forming units (CFU) were counted after the incubation period. The MIC values were determined as the minimal concentration required to inhibit growth of the bacteria.
(§2) Stock solutions were made at a concentration of 1 mg/ml by dissolving 1 mg of each compound in 100 μl DMSO (dimethylsulfoxide) followed by addition of 900 μl of heat-inactivated fetal claf serum (HFCS). These stock solutions were diluted with HFCS to make solutions having the following concentrations: 320 μg/ml, 160 μg/ml, 80 μg/ml, 40 μg/ml and 20 μg/ml. Dilution rows were made with 3 ml aliquots in vials containing the compounds in the following final test concentrations: 16 μg/ml, 8 μg/ml, 4 μg/ml, 2 μg/ml and 1 μg/ml. As control was used DMSO-HFCS containing an amount of DMSO equal to the amount of test compound in the solution with 320 μg/ml compound.
as §1, with “Bacteria: 20” for “20”, “concentrations” for “concentrations as described in the examples”, “and then they” for “and”, “were” for “were then”, “incubation at” for “incubation in a”, “C. in” for “C. for”
as §2, with “concentrations: 2560 μg/ml, 1280 μg/ml, 640 μg/ml,” for “concentrations:”, “160 µg/ml and” for “160 μg/ml,”, “80” for “80 μg/ml, 40 μg/ml and 20”, “concentrations: 128 μg/ml, 64 μg/ml, 32 μg/ml, 12” for “concentrations: 16”, “8” for “8 μg/ml, 4 μg/ml, 2”, “and 4” for “and 1”
Bacteria: 20 strains of Helicobacter pylori were used in an agar plate assay. The same method as described above under Experiment A was employed and MIC values were determined.

Compound | IC50 (Leishmania promastigotes) | IC50 (Plasmodium falciparum) | melting point | MIC (Helicobacter pylori; Helicobacter pylori, 20 strains of H. pylori, agar plate, 72 hours, read-out: MIC) | IC50 (human lymphocytes) | strains of Helicobacter pylori inhibited (Helicobacter pylori; at a concentration of 16 μg/ml, 20 strains) | No. strains inhibited/No. strains tested (Helicobacter pylori; at the MIC of the same line)
CCCCOc1ccccc1C(=O)/C=C/c1cc(OC)cc(OC)c1 [2′-OC4H9-3,5-OCH3, 3,5-dimethoxy-2′-butoxychalcone] | 7.2 ± 1.2 µM | 25 µM | 69.5 to 70.1 °C | – | 13 ± 1 µM | – | –
O=C(/C=C/c1ccc(Oc2ccccc2)cc1)c1ccc(F)cc1 [4′-F-4-OC6H5, 4-phenoxy-4′-fluorochalcone] | 42 ± 6 µM | – | 115.7 to 116 °C | – | 33 ± 2 µM | – | –
CCCCOc1ccccc1/C=C/C(=O)c1ccc(OC)c(OC)c1OC [2-OC4H9-2′,3′,4′-OCH3, 2-butoxy-2′,3′,4′-trimethoxychalcone] | 26 ± 1 µM | 7.8 µM | 129.4 to 130.2 °C | – | 52 ± 3 µM | – | –
COc1ccc(C(=O)/C=C/c2cccc([N+](=O)[O-])c2)c(OC)c1OC [3-NO2-2′,3′,4′-OCH3, 3-nitro-2′,3′,4′-trimethoxychalcone] | 17 ± 2 µM | 5.5 µM | 130.1 to 130.7 °C | – | 36 ± 2 µM | – | –
COc1ccc(C(=O)/C=C/c2cccc(N(C)C)c2)c(OC)c1OC [3-N(CH3)2-2′,3′,4′-OCH3, 3-dimethylamino-2′,3′,4′-trimethoxychalcone] | 20 ± 3 µM | 12 µM | 87.2 to 87.9 °C | – | 26 ± 1 µM | – | –
O=C(/C=C/c1ccc(Oc2ccccc2)cc1)c1ccc(C2CCCCC2)cc1 [4′-cC6H11-4-OC6H5, 4-phenoxy-4′-cyclohexylchalcone] | – | 200 µM | 160.9 to 161.1 °C | – | – | – | –
COc1cccc(C(=O)/C=C/c2ccc(OC)cc2OC)c1 [3′,2,4-OCH3, 2,4,3′-trimethoxychalcone] | 18 ± 3 µM | – | 75.6 to 78.9 °C | – | 42 ± 2 µM | – | –
COc1ccc(C(=O)/C=C/c2ccccc2F)c(OC)c1OC [2-F-2′,3′,4′-OCH3, 2-fluoro-2′,3′,4′-trimethoxychalcone] | 15 ± 1 µM | – | 75 to 75.8 °C | – | 11 ± 1 µM | – | –

The remaining compounds from weak to strong by IC50 (Leishmania promastigotes), led by results:

IC50 (Leishmania promastigotes) | IC50 (Plasmodium falciparum) | melting point | MIC (Helicobacter pylori; Helicobacter pylori, 20 strains of H. pylori, agar plate, 72 hours, read-out: MIC) | Compound | IC50 (human lymphocytes) | strains of Helicobacter pylori inhibited (Helicobacter pylori; at a concentration of 16 μg/ml, 20 strains) | No. strains inhibited/No. strains tested (Helicobacter pylori; at the MIC of the same line)
9.3 ± 1 µM | 10 µM | 122.6 to 123 °C | – | COc1ccc(C(=O)/C=C/c2ccccc2O)c(OC)c1OC [2-OH-2′,3′,4′,-OCH3, 2-hydroxy-2′,3′,4′-trimethoxychalcone] | 9 ± 0.7 µM | – | –
8.6 ± 0.9 µM | 7.6 µM | 131.7 to 133 °C | – | COc1ccc(C(=O)/C=C/c2ccc(C#N)cc2)c(OC)c1OC [4-CN-2′,3′,4′-OCH3, 4-cyano-2′,3′,4′-trimethoxychalcone] | 5.4 ± 0.3 µM | – | –
8.6 µM | – | 88.1 to 88.7 °C | – | COc1ccc(/C=C/C(=O)c2cccc([N+](=O)[O-])c2)c(OC)c1 [3′-NO2-2,4-OCH3, 2,4-dimethoxy-3′-nitrochalcone] | 18 ± 2 µM | – | –
8.3 ± 0.9 µM | – | 111.6 to 112.5 °C | – | COc1cc(/C=C/C(=O)c2ccc(OC)c(OC)c2OC)cc(OC)c1 [2′,3′,4′,3,5-OCH3, 3,5,2′,3′,4′-pentamethoxychalcone] | 8.7 ± 0.5 µM | – | –
7.3 ± 1 µM | 13 µM | 159.8 to 160.5 °C | – | COc1cc(/C=C/C(=O)c2ccccc2N(C)C)cc(OC)c1 [2′-N(CH3)2-3,5-OCH3, 3,5-dimethoxy-2′-dimethylaminochalcone] | 5.7 ± 0.3 µM | – | –
5.9 ± 0.4 µM | 9.3 µM | 107.1 to 108 °C | 16 µg/mL (≈ 46.6 µM) | COc1ccc(C(=O)/C=C/c2ccccc2[N+](=O)[O-])c(OC)c1OC [PH98, 2-nitro-2′,3′,4′-trimethoxychalcone] | 7 ± 0.6 µM | 4 out of 20 | 6/20
5.8 ± 0.7 µM | 29 µM | 81.8 to 82.6 °C | – | COc1cc(/C=C/C(=O)c2cccc(N(C)C)c2)cc(OC)c1 [3′-N(CH3)2-3,5-OCH3, 3,5-dimethoxy-3′-dimethylaminochalcone] | 5 ± 0.2 µM | – | –
3.8 ± 0.9 µM | 20 µM | 110.2 to 110.9 °C | – | COc1cc(/C=C/C(=O)c2ccccc2O)cc(OC)c1 [2′-OH-3,5-OCH3, 3,5-dimethoxy-2′-hydroxychalcone] | 8.1 ± 0.8 µM | – | –
3.7 ± 0.6 µM | 28 µM | 126.2 to 126.8 °C | – | COc1cc(/C=C/C(=O)c2cccc(O)c2)cc(OC)c1 [3′-OH-3,5-OCH3, 3,5-dimethoxy-3′-hydroxychalcone] | 3.2 ± 0.4 µM | – | –
3.4 ± 0.5 µM | 7.4 µM | 98.4 to 98.9 °C | – | COc1cc(/C=C/C(=O)c2ccccc2[N+](=O)[O-])cc(OC)c1 [2′-NO2-3,5-OCH3, 3,5-dimethoxy-2′-nitrochalcone] | 3.7 ± 0.2 µM | – | –
